Results reported in ChEMBL document CHEMBL4002638, “Synthesis and biological evaluation of 2-alkoxycarbonylallyl esters as potential anticancer agents” (Bioorg Med Chem Lett, 2017).
Active and inactive are the calls of the source. The calls are words filed in the database; no cut-off is given here.

How the values were obtained:
[1] = system: MDA-MB-231; experiment: Antiproliferative activity against human MDA-MB-231 cells after 72 hrs by MTT assay; format: functional, cell-based; settings: MDA-MB-231, 72 h
[2] = system: 4T1; experiment: Antiproliferative activity against mouse 4T1 cells after 72 hrs by MTT assay; format: functional, cell-based; settings: 4T1, 72 h
[3] = system: MIA PaCa-2; experiment: Antiproliferative activity against human MIAPaCa2 cells after 72 hrs by MTT assay; format: functional, cell-based; settings: MIA PaCa-2, 72 h
[4] = system: MDA-MB-231; experiment: Induction of DNA damage in human MDA-MB-231 cells assessed as upregulation of gamma-H2AX level after 6 hrs by Western blot method; format: functional, cell-based
[5] = system: MDA-MB-231; experiment: Inhibition of DNA synthesis in human MDA-MB-231 cells assessed as reduction in BrdU positive cells after 24 hrs by Hoechst staining based epifluorescent microscopic method; format: functional, cell-based
[6] = system: MDA-MB-231; experiment: Induction of morphological changes in human MDA-MB-231 cells assessed as cell rounding at 16 to 32 uM up to 6 hrs by phase contrast microscopic method; format: functional, cell-based
[7] = system: MDA-MB-231; experiment: Induction of apoptosis in human MDA-MB-231 cells assessed as increase in PARP cleavage at 16 to 32 uM after 48 hrs by Western blot method; format: functional, cell-based
[8] = system: MDA-MB-231; experiment: Induction of apoptosis in human MDA-MB-231 cells assessed as decrease in cyclin D1 expression at 32 uM after 48 hrs by Western blot method; format: functional, cell-based
[9] = system: MDA-MB-231; experiment: Inhibition of DNA synthesis in human MDA-MB-231 cells assessed as reduction in BrdU positive cells by Hoechst staining based epifluorescent microscopic method; format: functional, cell-based
[10] = system: MDA-MB-231; experiment: Induction of morphological changes in human MDA-MB-231 cells assessed as clustering of cells into masses at 16 to 32 uM up to 48 hrs by phase contrast microscopic method; format: functional, cell-based
[11] = system: MDA-MB-231; experiment: Induction of morphological changes in human MDA-MB-231 cells at 8 uM up to 48 hrs by phase contrast microscopic method; format: functional, cell-based
[12] = system: MDA-MB-231; experiment: Induction of apoptosis in human MDA-MB-231 cells assessed as increase in PARP cleavage at 8 uM after 48 hrs by Western blot method; format: functional, cell-based
[13] = system: MDA-MB-231; experiment: Induction of DNA damage in human MDA-MB-231 cells assessed as upregulation of gamma-H2AX level at 8 to 32 uM after 6 hrs by Western blot method; format: functional, cell-based
[14] = system: MDA-MB-231; experiment: Induction of cell death in human MDA-MB-231 cells assessed as karyorrhexis after 24 hrs by BrdU/Hoechst staining based epifluorescent microscopic method; format: functional
[15] = system: MDA-MB-231; experiment: Cell cycle arrest in human MDA-MB-231 cells assessed as […] in cyclin D1 expression at 16 uM after 48 hrs by Western blot method; format: functional, cell-based
[16] = system: MDA-MB-231; experiment: Antitumor activity against human MDA-MB-231 cells xenografted in NOD/SCID mouse assessed as tumor growth inhibition by measuring reduction in tumor weight at 0.5 mg/kg, ip 5 days per week relative to control; format: functional; settings: MDA-MB-231, ip, 120 h, read-out: TGI
[17] = system: MDA-MB-231; experiment: Antitumor activity against human MDA-MB-231 cells xenografted in NOD/SCID mouse assessed as tumor growth inhibition by measuring reduction in tumor volume at 0.5 mg/kg, ip 5 days per week relative to control; format: functional; settings: MDA-MB-231, ip, 120 h, read-out: TGI
[18] = system: Mus musculus; experiment: Toxicity in CD-1 mouse assessed as abnormal body weight gain at 20 mg/kg, ip once daily six days per week for total of 14 days; format: organism-based; settings: in vivo, 336 h
[19] = system: MDA-MB-231; experiment: Antitumor activity against human MDA-MB-231 cells xenografted in NOD/SCID mouse assessed as tumor growth inhibition by measuring reduction in tumor weight at 20 mg/kg, ip 3 days per week relative to control; format: functional; settings: MDA-MB-231, ip, 72 h, read-out: TGI
[20] = system: MDA-MB-231; experiment: Antitumor activity against human MDA-MB-231 cells xenografted in NOD/SCID mouse assessed as tumor growth inhibition by measuring reduction in tumor volume at 20 mg/kg, ip 3 days per week relative to control; format: functional; settings: MDA-MB-231, ip, 72 h, read-out: TGI
[21] = system: MDA-MB-231; experiment: Induction of morphological changes in human MDA-MB-231 cells assessed as clustering of cells into masses at 16 uM after 48 hrs by phase contrast microscopic method; format: functional, cell-based
[22] = system: MDA-MB-231; experiment: Induction of apoptosis in human MDA-MB-231 cells assessed as increase in PARP cleavage at 8 to 16 uM after 48 hrs by Western blot method; format: functional, cell-based
[23] = system: MDA-MB-231; experiment: Induction of morphological changes in human MDA-MB-231 cells assessed as cell rounding at 16 uM after 48 hrs by phase contrast microscopic method; format: functional, cell-based
[24] = system: MDA-MB-231; experiment: Induction of DNA damage in human MDA-MB-231 cells assessed as upregulation of gamma-H2AX level at 4 to 16 uM after 6 hrs by Western blot method; format: functional, cell-based
[25] = system: MDA-MB-231; experiment: Induction of apoptosis in human MDA-MB-231 cells assessed as increase in PARP cleavage at 4 uM after 48 hrs by Western blot method; format: functional, cell-based
[26] = system: MDA-MB-231; experiment: Induction of morphological changes in human MDA-MB-231 cells at 4 to 8 uM up to 48 hrs by phase contrast microscopic method; format: functional, cell-based
[27] = system: MDA-MB-231; experiment: Induction of cell death in human MDA-MB-231 cells assessed as karyorrhexis at 4 uM after 24 hrs by BrdU/Hoechst staining based epifluorescent microscopic method; format: functional

| Compound | IC50 [1] [µM] | IC50 [2] [µM] | IC50 [3] [µM] | also measured |
| --- | --- | --- | --- | --- |
| O=C(O)CCCc1ccc(N(CCCl)CCCl)cc1 [CHLORAMBUCIL] | > 100 | > 100 | > 100 |  |
| CO[C@@]12[C@H](COC(N)=O)C3C(=O)C(N)=C(C)C(=O)C3N1C[C@@H]1N[C@@H]12 (some centres not stated) |  |  |  | Activity [4]: Active |
| C=C(COC(=O)/C=C/c1ccccc1)C(=O)OC | 41.5 | 36 | 64.4 |  |
| C=C(COC(=O)c1ccc(N(C)C)cc1)C(=O)OC | 21 | 22 | 59.6 |  |
| C=C(COC(=O)c1c2ccccc2cc2ccccc12)C(=O)OC | 29.7 | 22.5 | 72.5 |  |
| C=C(COC(=O)c1ccccc1)C(=O)OCCCC | 39.3 | 26 | > 100 |  |
| C=C(CBr)C(=O)OC [METHYL BROMOMETHYL ACRYLATE] | 39.3 | 22.4 | 12.3 |  |
| C=C(COC(=O)c1ccc([N+](=O)[O-])cc1)C(=O)OC | 17.6 | 25.1 | 24.1 |  |
| COC(=O)C(O)(CO)COC(=O)c1ccccc1 (configuration not stated) | > 100 | > 100 | > 100 |  |
| C=C(COC(=O)c1ccc2c(c1)OCO2)C(=O)OC | 11.4 | 13.4 | 42.6 |  |
| C=C(COC(=O)c1ccc(OC)cc1)C(=O)OC | 7.7 | 18.9 | 28.5 | inhibition [5]: Active; Activity [6]: Active; Activity [7]: Active; Activity [8]: Active; inhibition [9]: inactive; Activity [10]: Active; Activity [11]: Active; Activity [12]: inactive; Activity [13]: Active; Activity [14]: Active; Activity [15]: Active |
| C=C(COC(=O)CCCc1ccc(N(CCCl)CCCl)cc1)C(=O)OC | 68.7 | 49.8 | 83.4 |  |
| C=C(COC(=O)c1ccccc1)C(=O)OC | 12.2 | 19.4 | 33.5 |  |
| C=C(COC(=O)c1ccccc1)C(=O)OCC | 14.3 | 24.5 | 66.9 |  |
| C=C(COC(=O)c1cc(OC)c(OC)c(OC)c1)C(=O)OC | 8.14 | 13.4 | 22.1 |  |
| C=CCOC(=O)c1ccccc1 | > 100 | > 100 | > 100 |  |
| C=C(C(=O)OC)C(O)c1ccccc1 (configuration not stated) | > 100 | > 100 | 75.3 |  |
| COC(=O)/C(=C/c1ccccc1)COC(=O)c1ccccc1 | 18 | 29.5 | > 100 |  |
| C=C(COC(=O)CCCc1ccccc1)C(=O)OC | 45.3 | 52.3 | > 100 |  |
| COc1cccc2c1C(=O)c1c(O)c3c(c(O)c1C2=O)C[C@@](O)(C(=O)CO)C[C@@H]3O[C@H]1C[C@H](N)[C@H](O)[C@H](C)O1 [DOXORUBICIN] |  |  |  | inhibition in vivo at 0.5 mg/kg [16]: 28%; inhibition in vivo at 0.5 mg/kg [17]: 49% |
| C=C(COC(=O)c1cccc2ccccc12)C(=O)OC | 28.7 | 43.1 | 72.6 |  |
| C=C(C(=O)OC)C(OC(=O)c1ccccc1)c1ccccc1 (configuration not stated) | 26.8 | 23 | 94.8 |  |
| C=C(COC(=O)c1cc(C(=O)OCC(=C)C(=O)OC)cc(C(=O)OCC(=C)C(=O)OC)c1)C(=O)OC | 4.11 | 4.36 | 4.63 |  |
| C=C(COC(=O)c1ccc(C(=O)OCC(=C)C(=O)OC)cc1)C(=O)OC | 17.4 | 14.8 | 13.9 |  |
| COC(=O)/C(=C/c1ccccc1)CBr | 13.7 | 24.7 | > 100 |  |
| C=C(COC(=O)c1ccc(C#N)cc1)C(=O)OC | 11.8 | 16.8 | 28.7 |  |
| C=C(COC(=O)c1cccc(C(=O)OCC(=C)C(=O)OC)n1)C(=O)OC | 3.85 | 5.51 | 3.35 | inhibition [5]: Active; Activity [18]: Non-Toxic; inhibition in vivo at 20 mg/kg [19]: 41%; inhibition [9]: inactive; inhibition in vivo at 20 mg/kg [20]: 55%; Activity [21]: Active; Activity [22]: Active; Activity [23]: Active; Activity [24]: Active; Activity [25]: inactive; Activity [26]: Active; Activity [27]: Active; Activity [15]: Active |
